Results on 48 molecules are retold here after ChEMBL document CHEMBL1159050, “2-Arylbenzoxazoles as CETP inhibitors: substitution and modification of the alpha-alkoxyamide moiety” (Bioorg Med Chem Lett, 2010).

Series [1] has as its target T1, Cholesteryl ester transfer protein (Homo sapiens, UniProt P11597).
T1 sequence (P11597 whole entry): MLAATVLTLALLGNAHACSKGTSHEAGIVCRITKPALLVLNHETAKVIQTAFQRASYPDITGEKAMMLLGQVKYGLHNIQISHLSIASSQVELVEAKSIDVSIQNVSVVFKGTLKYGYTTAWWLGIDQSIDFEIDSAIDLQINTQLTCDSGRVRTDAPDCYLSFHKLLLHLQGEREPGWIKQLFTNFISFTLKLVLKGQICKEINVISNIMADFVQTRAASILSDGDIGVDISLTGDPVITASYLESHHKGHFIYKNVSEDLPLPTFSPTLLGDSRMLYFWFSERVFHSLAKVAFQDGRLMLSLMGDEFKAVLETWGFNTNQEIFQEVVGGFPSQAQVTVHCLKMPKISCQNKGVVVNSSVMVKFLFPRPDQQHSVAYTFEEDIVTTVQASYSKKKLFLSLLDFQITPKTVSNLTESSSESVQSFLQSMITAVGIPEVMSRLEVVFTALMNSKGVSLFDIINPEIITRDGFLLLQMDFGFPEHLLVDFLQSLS
The series can be described thus: Inhibition of CETP assessed as cholesteryl ester transfer activity.

Series [2] can be described thus: Oral bioavailability in mouse. Format: ADME, organism-based. The conditions noted are these: in vivo.
The nature of series [3]: Clearance in mouse. Format: ADME, organism-based. To be noted: in vivo.
A short description of series [4]: Half life in mouse. Format: ADME, organism-based. The conditions noted are these: in vivo.

The IC50 is the point on the concentration scale where inhibition reaches its midpoint. As to `Cc1ccccc1OCC(=O)Nc1ccc(-c2nc3cc(C#N)ccc3o2)cc1`, the half-inhibitory concentration (IC50) in series [1] is 130 nM. On to `Cc1ccccc1OCC(=O)Nc1ccc(-c2nc3cc(Cl)ccc3o2)cc1`, for which the IC50 in series [1] was determined as 1110 nM. Same read-out and setting: the value for `COc1ccc(OCC(=O)Nc2ccc(-c3nc4cc(Cl)ccc4o3)cc2)cc1` was 4570 nM. For `O=C(Nc1ccc(-c2nc3cc(Cl)ccc3o2)cc1)OCc1ccccc1`, the IC50 in series [1] was greater than 30000 nM. Broadly, the bioavailability is the share of a dose that reaches the circulation, judged against a reference dose that is usually intravenous. A lower bioavailability goes with poor availability. As to `N#Cc1ccc2oc(-c3ccc(NC(=O)COC(C(F)(F)F)C(F)(F)F)cc3)nc2c1`, the half-inhibitory concentration (IC50) in series [1] turned out to be 94 nM. For the same molecule, the bioavailability in series [2] turned out to be 4%. `CC(C)(OCC(=O)Nc1ccc(-c2nc3cc(C#N)ccc3o2)cc1)C(F)(F)F`: in series [1], the IC50 stood at 51 nM.

`N#Cc1ccc2oc(-c3ccc(NC(=O)COC(C(F)(F)F)(C(F)(F)F)C(F)(F)F)cc3)nc2c1`: in series [1], the IC50 was determined as 151 nM.

For `O=C(COc1ccccc1)Nc1ccc(-c2nc3cc(Cl)ccc3o2)cc1`, in series [1], the IC50 turned out to be 4230 nM. As to `CC(C)(C)OCC(=O)Nc1ccc(-c2nc3cc(C#N)ccc3o2)cc1`, the IC50 in series [1] amounted to 132 nM. For `COc1cccc(OCC(=O)Nc2ccc(-c3nc4cc(Cl)ccc4o3)cc2)c1`, the IC50 in series [1] was 12900 nM. Consider `O=C(COc1cccc([N+](=O)[O-])c1)Nc1ccc(-c2nc3cc(Cl)ccc3o2)cc1`, for which the concentration for half-maximal inhibition (IC50) in series [1] amounted to 26500 nM. Turning to `Cc1ccc(OCC(=O)Nc2ccc(-c3nc4cc(Cl)ccc4o3)cc2)cc1`, in series [1], the IC50 is greater than 30000 nM. For `O=C(COc1ccc([N+](=O)[O-])cc1)Nc1ccc(-c2nc3cc(Cl)ccc3o2)cc1`, in series [1], the IC50 came out at 2210 nM.

For the molecule `O=C(CNc1ccccc1)Nc1ccc(-c2nc3cc(Cl)ccc3o2)cc1`, the IC50 in series [1] is 8130 nM. Turning to `CC(OCC(=O)Nc1ccc(-c2nc3cc(C#N)ccc3o2)cc1)(C(F)(F)F)C(F)(F)F`, the IC50 in series [1] was determined as 44 nM. Regarding `CCc1ccccc1OCC(=O)Nc1ccc(-c2nc3cc(Cl)ccc3o2)cc1`, the IC50 in series [1] was found to be 2590 nM.

For the molecule `Cc1ccccc1OCC(=O)N(C)c1ccc(-c2nc3cc(Cl)ccc3o2)cc1`, the IC50 in series [1] was greater than 30000 nM. In the case of `CC(Oc1ccccc1)C(=O)Nc1ccc(-c2nc3cc(Cl)ccc3o2)cc1` (stereo not drawn), the half-inhibitory concentration (IC50) in series [1] is greater than 30000 nM.

On to `N#Cc1cccc(OCC(=O)Nc2ccc(-c3nc4cc(Cl)ccc4o3)cc2)c1`, for which the IC50 in series [1] was greater than 30000 nM. Take `CCCc1ccccc1OCC(=O)Nc1ccc(-c2nc3cc(Cl)ccc3o2)cc1`: the half-maximal inhibitory concentration (IC50) in series [1] was 2700 nM. Take `O=C(COc1ccccc1C(F)(F)F)Nc1ccc(-c2nc3cc(Cl)ccc3o2)cc1`: the IC50 in series [1] was 6390 nM.

As to `O=C(COc1ccccc1Cl)Nc1ccc(-c2nc3cc(Cl)ccc3o2)cc1`, the concentration for half-maximal inhibition (IC50) in series [1] amounted to 2150 nM. As for `O=C(COc1cccc(F)c1)Nc1ccc(-c2nc3cc(Cl)ccc3o2)cc1`, the IC50 in series [1] is 1990 nM. For `N#Cc1ccc(OCC(=O)Nc2ccc(-c3nc4cc(Cl)ccc4o3)cc2)cc1`, the IC50 in series [1] is greater than 30000 nM. For the molecule `O=C(COc1ccc(F)cc1)Nc1ccc(-c2nc3cc(Cl)ccc3o2)cc1`, the IC50 in series [1] came to 1770 nM.

Turning to `O=C(CSc1ccccc1)Nc1ccc(-c2nc3cc(Cl)ccc3o2)cc1`, the half-inhibitory concentration (IC50) in series [1] is greater than 30000 nM. Regarding `O=C(COc1ccc(Cl)cc1)Nc1ccc(-c2nc3cc(Cl)ccc3o2)cc1`, in series [1], the concentration for half-maximal inhibition (IC50) came out at 6810 nM. Consider `O=C(COc1cccc(Cl)c1)Nc1ccc(-c2nc3cc(Cl)ccc3o2)cc1`, for which the half-maximal inhibitory concentration (IC50) in series [1] was 1250 nM. With `O=C(NCc1ccccc1)Nc1ccc(-c2nc3cc(Cl)ccc3o2)cc1`, the half-maximal inhibitory concentration (IC50) in series [1] was greater than 30000 nM.

Consider `N#Cc1ccc2oc(-c3ccc(NC(=O)COCc4ccccc4C(F)(F)F)cc3)nc2c1`, for which the IC50 in series [1] was 505 nM. Take `CCOCC(=O)Nc1ccc(-c2nc3cc(C#N)ccc3o2)cc1`: in series [1], the IC50 came out at 1380 nM. Same read-out and setting: in the case of `CC(C)OCC(=O)Nc1ccc(-c2nc3cc(C#N)ccc3o2)cc1` it was 613 nM; in that of `O=C(COc1cccc(C(F)(F)F)c1)Nc1ccc(-c2nc3cc(Cl)ccc3o2)cc1`, 1770 nM; in that of `O=C(COCc1ccccc1)Nc1ccc(-c2nc3cc(Cl)ccc3o2)cc1`, 6540 nM.

Regarding `O=C(CNCc1ccccc1)Nc1ccc(-c2nc3cc(Cl)ccc3o2)cc1`, the half-inhibitory concentration (IC50) in series [1] was 18100 nM.

Regarding `N#Cc1ccccc1OCC(=O)Nc1ccc(-c2nc3cc(Cl)ccc3o2)cc1`, the IC50 in series [1] was greater than 30000 nM. Turning to `O=C(COc1ccccc1F)Nc1ccc(-c2nc3cc(Cl)ccc3o2)cc1`, the IC50 in series [1] is greater than 30000 nM. Take `COc1ccccc1OCC(=O)Nc1ccc(-c2nc3cc(Cl)ccc3o2)cc1`: the half-inhibitory concentration (IC50) in series [1] is greater than 30000 nM. Same read-out and setting: the value for `c1ccc(OCCNc2ccc(-c3nc4ccccc4o3)cc2)cc1` was 75900 nM. For `CC(C)OCCNc1ccc(-c2nc3cc(C#N)ccc3o2)cc1`, the IC50 in series [1] was found to be 890 nM. In series [2], this molecule yielded a bioavailability of 30%. In general, clearance refers to the rate of elimination divided by the concentration. A low value points to a low capacity for elimination. One may read the half-life as the time in which the quantity being followed falls by half. The low end stands for rapid decline, the high end for slow decline. Take `CC(OCCNc1ccc(-c2nc3cc(C#N)ccc3o2)cc1)(C(F)(F)F)C(F)(F)F`: in series [1], the IC50 worked out at 151 nM. This molecule also yielded a clearance in series [3] of 31 mL/min/kg. In series [4], this molecule showed a half-life of 7.3 h. In series [2], this molecule showed a bioavailability of 20%.

With `O=C(COc1ccccc1[N+](=O)[O-])Nc1ccc(-c2nc3cc(Cl)ccc3o2)cc1`, in series [1], the IC50 worked out at 4400 nM. As to `O=C(COc1ccc(C(F)(F)F)cc1)Nc1ccc(-c2nc3cc(Cl)ccc3o2)cc1`, in series [1], the concentration for half-maximal inhibition (IC50) came to 810 nM. As to `Cc1ccccc1CNC(=O)c1ccc(-c2nc3cc(Cl)ccc3o2)cc1`, in series [1], the concentration for half-maximal inhibition (IC50) is greater than 30000 nM. As for `Cc1ccccc1COCC(=O)Nc1ccc(-c2nc3cc(C#N)ccc3o2)cc1`, the half-maximal inhibitory concentration (IC50) in series [1] amounted to 1180 nM. For `O=S(=O)(Cc1ccccc1)Nc1ccc(-c2nc3cc(Cl)ccc3o2)cc1`, the concentration for half-maximal inhibition (IC50) in series [1] is greater than 30000 nM. With `Cc1cccc(OCC(=O)Nc2ccc(-c3nc4cc(Cl)ccc4o3)cc2)c1`, the IC50 in series [1] stood at 19300 nM. On the same count and under the same terms, in the case of `O=C(CCc1ccccc1)Nc1ccc(-c2nc3cc(Cl)ccc3o2)cc1` it was greater than 30000 nM.
